Results as given in US9918958B2, “Treatment for hypoxia” (priority 2011, dated 2018).

Assays:
[1] = test system: sickle cell disease mouse model; conditions: cited from earlier work
[2] = test system: mice; conditions: simulated altitude of 9,500 meters; cited from earlier work
[3] = animals
[4] = hypoxic challenge test (12% oxygen, SpO2 by pulse oximeter); type: in vivo, human
Protocol: The hypoxic challenge test was conducted it the following manner: using face masks and air tanks containing 12% oxygen (compared to 21% oxygen in normal air at sea level), subjects inhaled the 12% hypoxic mixture for 5 minutes at a time just prior to starting the dose of study medication (5-HMF or placebo, double-blind) and then again at each of the time intervals 0.75, 2, 4 and 8 hours after the dose. A finger tip oxygen sensing probe connected to a pulse oximeter provided continuous measurement of SpO2 values (percentage of hemoglobin containing at least one oxygen molecule) and the SpO2 values were recorded every 20 seconds during the hypoxic challenge and during a 3-minute recovery period (during which normal air was inspired). The hypoxia challenge was aborted if SpO2 values fell to less than 85%. FIG. 1 illustrates the effect of 5-HMF during a hypoxic challenge. The data compares the fall in mean SpO2 values of placebo and the 2000 mg dose of 5-HMF prior to a hypoxic challenge given at the 2 hour time point post-dose. The mean change in SpO2 levels from start is shown for each one-minute interval of the 5-minute hypoxic challenge. […] It is noteworthy that the difference between placebo and drug becomes greater as the level of hypoxia in the placebo subjects increases. […] Since the level of hypoxic challenge in this initial human study was moderate (no clinical symptoms of hypoxia were present), the impact of 5-HMF should be even greater when the hypoxic challenge is more extreme.
An illustration of the dose-dependent ability of 5-HMF to impact blood oxygenation during a hypoxic challenge is shown in FIG. 2. Because there are appreciable inter-individual differences in the magnitude of the decline of SpO2 in response to a hypoxic challenge, each subject (both placebo and 5-HMF) was tested for the decline in SpO2 at the 5 minute time point for both (i) the challenge given prior to the dose of placebo or 5-HMF and (ii) the challenge given 2 hours after the dose of placebo or 5-HMF. The dotted line in FIG. 2 represents the “baseline” amount of decline occurring during the challenge given prior to dosing placebo or 5-HMF. The results of the decline in SpO2 for each subject at the end the challenge given 2 hours post-dose results were compared to the subject's baseline amount. Thus each subject acted as his/her own control. The blue dots represent individual subject scores and the horizontal black line is the mean SpO2 change relative to the pre-dose hypoxic challenge.

[5] = human, single doses of 300 mg, 1000 mg, 2000 mg and 4000 mg (n=6 per dose)
Protocol: The study was a double-blind, placebo (n=8) controlled single ascending dose (SAD) trial examining 5-HMF doses of 300 mg, 1000 mg, 2000 mg and 4000 mg (n=6 per dose).

O=Cc1ccc(CO)o1 [5-HMF, 5-hydroxymethyl-2-furfural]
P50 of SCD Hb [1]: lower P50 (left shift) | protection against lethal effects of hypoxia [1]: provides in vivo protection against the lethal effects of hypoxia | survival under hypobaric hypoxia [2]: increase survival of mice | safety window suggested by repeat dose animal toxicology and safety data [3]: wide safety window in humans is likely | effect on blood oxygen saturation during hypoxia challenge compared to placebo ([4]; 300 mg dose, 2 hours post-dose): small | mean change in ending SpO2 levels relative to the pre-dose hypoxic challenge ([4]; 1000 mg dose, 2 hours post-dose, 5 minute time point of challenge): approximately 2.5 unit | fall in mean SpO2 after one minute of inhalation of hypoxic air ([4]; 2000 mg dose, challenge at 2 hour post-dose, 12% oxygen): 5 units | effect on SpO2 during hypoxic challenge relative to placebo ([4]; 2000 mg dose, challenge at 2 hour post-dose, from one minute on for the remainder of the 5-minute challenge): less severe decrease in SpO2 during the hypoxic challenge | effect on blood oxygen saturation during hypoxia challenge compared to placebo ([4]; all dose levels (300-4000 mg), 2 hours post-dose): increased the blood oxygen saturation of the test subjects compared to placebo at all dose levels | difference from placebo of the most active dose levels ([4]; top three doses (1000, 2000, 4000 mg), p=0.0498): statistically significant | safety and tolerability [5]: safe and well tolerated
